Test results reported in patent US6177474A, “Polyhydroxyphenol derivatives and preventive and therapeutic agents for bone and cartilage diseases containing the same” (Hoechst Marion Roussel, priority 1996, dated 2001).

Tested on: bone cells containing osteoclast cells
Test: Pit formation assay: inhibition of osteolysis (absorption pits on ivory slices)
Format: cell-based, ICR mice
Settings: for inhibition at 10 µM: Mus musculus, Osteoclast, read-out: Ratio of inhibition (%)
Description: ICR mice 11-12 days old (purchased from Charles River Japan) were euthanized by anesthesia with ether and immediately immersed in 70% ethanol for disinfection. By the use of ophthalmologist scissors and pincers sterilized in advance with ethanol, femur and tibia were excised from the sacrificed mice and chopped into small pieces in an α-MEM culture medium (purchased from Flow Laboratories Corp.). containing 5% FBS (purchased from Irvine Scientific Corp.), 100 U/ml penicillin and 100 μg/ml streptomycin. The supernatant formed consequently was recovered by pipeting, cleaned with the culture broth, and suspended in a 5% FBS α-MEM culture broth to obtain bone cells containing osteoclast cells. The supernatant of a bone cell-floating liquid formed after 3 minutes' standing of the bone cells at rest was recovered and passed through a mesh (cell strainer, 70 μm, purchased from Falcon Corp.). The filtrate was adjusted to a cell concentration of 1×10^7 /ml and used for the pit formation assay.
An ivory piece was cut into slices, 150 μm in thickness, by the use of a precision low-speed cutting machine (purchased from Buehler Corp.). Cylindrical holes, 6 mm in diameter, were perforated in the slices by the use of a one-hole punch. The ivory slices were immersed in 70% ethanol and subjected therein to an ultrasonic cleaning treatment twice each for five minutes and washed three times with a sterilized PBS and twice with the culture medium. The ivory slices were set in place on a 96-hole culture plate (purchased from Falcon Corp.). The perforated ivory slices on the culture plate, with a culture broth containing a given compound of the present invention prepared in a concentration of 2×10^-5 M added in a fixed volume of 100 μl (final medicine concentration 1×10^-5 M) to each of the holes and a culture broth containing prepared bone cells in a concentration of 1×10^7 /ml placed in each of the holes, were cultured for three days in a 10% CO2 incubator at 37° C. After the culture, the ivory slices were placed in an aqueous 2 N sodium hydroxide and the cells on the slices were removed by the use of a rubber spatula. The ivory slices were washed with water and methanol. The absorption pits formed in the ivory slices were dyed with Coomassie Brilliant Blue and were counted under a microscope. Though the numbers of absorption pits were naturally found to disperse among test lots, depending on the ratios of varying specie s of cells in the bone cell suspensions and the lots of animals used, satisfactorily uniform test results were found in one and the same test lot. The ratio of inhibition of osteolysis was calculated on the 100% scale, in which 0% stands for the number of absorption pits found in the culture broth in the presence of rPTH (1×10^-8 M) and in the absence of a medicine and 100% for total absence of absorption pit.
The test described above was performed in a total of ten runs, Tests 1-10.
In the columns titled "Added medicine No." found in Table 2 and Table 3, the symbol (-) denotes a control involving no addition of medicine and the numerical No. denotes the No. of the compound mentioned above.

[1] = 72 h, compound 10^-5 M, 0% = pits with rPTH (1×10^-8 M) without medicine, 100% = no absorption pit

In the case of `CC(C)=CCC1=C(O)C(O)(CC=C(C)C)C(=O)C(C(=O)c2ccccc2)=C1O` (stereo not shown) [Compound 32, 2,4-bis(3-methyl-2-butenyl)-6-benzoyl-2,3,5-trihydroxycyclohexa-3,5-dienone], the “No. of absorption pits (Mean ± SD)” value (72 h, 10 µM) is reported as 33.9 ± 4.1 and the inhibition at 10 µM [1] is reported as 65.7%.

With `CC(C)=CCc1c(O)c(CC=C(C)C)c(O)c(C(=O)CC(C)C)c1O` [Compound 15, {3,5-bis(3-methyl-2-butenyl)-2,4,6-trihydroxyphenyl} (2-methylpropyl) ketone] the “No. of absorption pits (Mean ± SD)” value (72 h, 10 µM) was 8.3 ± 2.4 and the inhibition at 10 µM [1] was 89.6%.

“{6-(3-methyl-2-butenyl)-2,4,5-trihydroxyphenyl} (2-methylpropyl) ketonemono(3-methyl-2-butenyl) ether [Compound 27]” was tested, and the “No. of absorption pits (Mean ± SD)” value (compound 10^-5 M, 3 days culture at 37° C., 10% CO2, control per test run given as (-)) was 38.8 ± 6.6 and the “Ratio of inhibition (%)” value (compound 10^-5 M, 0% = pits with rPTH (1×10^-8 M) without medicine, 100% = no absorption pit, 4320 min, 10 µM) was 80.8%.

For `CC(C)=CCc1c(O)c(O)c(CC=C(C)C)c(C(=O)CC(C)C)c1O` [Compound 25, {3,6-bis(3-methyl-2-butenyl)-2,4,5-trihydroxyphenyl} (2-methylpropyl) ketone], the “No. of absorption pits (Mean ± SD)” value (72 h, 10 µM) was 0 and the inhibition at 10 µM [1] was 100%.

`CC(C)=CCCC(C)=CCc1c(O)cc(O)c(C(=O)Cc2ccccc2)c1O` [Compound 46, {3-(3,7-dimethyl-2,6-octadienyl)-2,4,6-trihydroxyphenyl} (phenylmethyl) ketone] was tested, and the “No. of absorption pits (Mean ± SD)” value (72 h, 10 µM) was 125.3 ± 12.6 and the inhibition at 10 µM [1] was 44.3%.

For `CC(C)=CCc1cc(C(=O)CC(C)C)c(O)cc1O` [Compound 55, {2,4-dihydroxy-5-(3-methyl-2-butenyl)phenyl} (2-methylpropyl)ketone], the “No. of absorption pits (Mean ± SD)” value (72 h, 10 µM) was 15.8 ± 3.3 and the inhibition at 10 µM [1] was 90.8%.

`CC(C)=CCC1(CC=C(C)C)C(=O)C(C(=O)C(C)C)=C(O)C=C1O` [Compound 13, 2,2-bis(3-methyl-2-butenyl)-3,5-dihydroxy-6-(2-methyl-1-oxopropyl)cyclohexa-3,5-dienone] was tested, and the “No. of absorption pits (Mean ± SD)” value (72 h, 10 µM) was 16.8 ± 3.6 and the inhibition at 10 µM [1] was 79%.

In the case of `CC(C)=CCCC(C)=CCc1c(O)c(CC=C(C)CCC=C(C)C)c(O)c(C(=O)CC(C)C)c1O` [Compound 19, {3,5-bis(3,7-dimethyl-2,6-octadienyl)-2,4,6-trihydroxyphenyl} (2-methylpropyl) ketone], the “No. of absorption pits (Mean ± SD)” value (72 h, 10 µM) is reported as 55.3 ± 6.1 and the inhibition at 10 µM [1] is reported as 70.5%.

With `CC(C)CCCC(C)CC(=O)c1c(O)cc(O)cc1O` (stereo not shown) [Compound 6, (2,6-dimethylheptyl) (2,4,6-trihydroxyphenyl) ketone] the “No. of absorption pits (Mean ± SD)” value (72 h, 10 µM) was 63.4 ± 12.4 and the inhibition at 10 µM [1] was 61.4%.

For `CC(C)=CCc1c(O)cc(O)c(C(=O)CC(C)C)c1C` [Compound 50, {4,6-dihydroxy-2-methyl-3-(3-methyl-2-butenyl)phenyl} (3-methylpropyl) ketone], the “No. of absorption pits (Mean ± SD)” value (72 h, 10 µM) was 40.1 ± 7.0 and the inhibition at 10 µM [1] was 80.1%.

With `Cc1cc(O)cc(O)c1C(=O)CC(C)C` [Compound 47, (2,4-dihydroxy-6-methylphenyl) (2-methylpropyl) ketone] the “No. of absorption pits (Mean ± SD)” value (72 h, 10 µM) was 179.8 ± 23.8 and the inhibition at 10 µM [1] was 10.9%.

`CC(C)=CCCC(C)=CCC1(CC=C(C)CCC=C(C)C)C(=O)C(C(=O)CC(C)C)=C(O)C=C1O` (stereo not shown) [Compound 21, 2,2-bis(3,7-dimethyl-2,6-octadienyl)-3,5-dihydroxy-6-(3-methyl-1-oxobutyl)cyclohexa-3,5-dienone] was tested, and the “No. of absorption pits (Mean ± SD)” value (72 h, 10 µM) was 3.5 ± 1.4 and the inhibition at 10 µM [1] was 98.1%.

`CC(C)CC(=O)c1c(O)c(Cc2ccccc2)c(O)c(Cc2ccccc2)c1O` [Compound 34, {3,5-bisbenzyl-2,4,6-trihydroxyphenyl} (2-methylpropyl) ketone] was tested, and the “No. of absorption pits (Mean ± SD)” value (72 h, 10 µM) was 8.2 ± 1.9 and the inhibition at 10 µM [1] was 95.9%.

For `CC(C)=CCC1=C(O)C(CC=C(C)C)(CC=C(C)C)C(=O)C(C(=O)CC(C)C)=C1O` [Compound 16, 3,5-dihydroxy-6-(3-methyl-1-oxobutyl)-2,2,4-tris(3-methyl-2-butenyl)cyclohexa-3,5-dienone], the “No. of absorption pits (Mean ± SD)” value (72 h, 10 µM) was 0 and the inhibition at 10 µM [1] was 100%.
